Data from US20160264570A1, “METHOD OF BLOCKING TRANSMISSION OF MALARIAL PARASITE” (THE UNITED STATES OF AMERICA, AS REPRESENTED BY THE …, priority 2013, published 2016).
Where two headings read alike, the source gives them in different places.

Legend:
[1] = test system: Asexual parasites of P. falciparum strain 3D7; assay: SYBR Green viability assay on asexual parasites; type: cell-based, Plasmodium falciparum; conditions: read-out: Activity against asexual parasites EC50
[2] = test system: P. falciparum strain 3D7 gametocytes; assay: alamarBlue gametocyte viability assay, strain 3D7
[3] = read-out: Gametocytocidal activity EC50, Table 6
[4] = Plasmodium falciparum, 3D7, Table 7
[5] = Plasmodium falciparum, 3D7, read-out: Gametocytocidal activity EC50, Table 7
[6] = Plasmodium falciparum, 3D7, Table 8
[7] = Plasmodium falciparum, 3D7, read-out: Gametocytocidal activity EC50, Table 8

SMILES | EC50 ([1]; Table 6) [nM] | EC50 [2, 3] [nM] | other results
O=c1ccc2cnc3ccc(-c4cccnc4)cc3c2n1-c1cccc(C(F)(F)F)c1 | 110 | 535 | 
O=c1ccc2cnc3ccc(-c4cncnc4)cc3c2n1-c1cccc(C(F)(F)F)c1 | 475 | 942 | 
CCn1c(=O)ccc2cnc3ccc(-c4ccc(N)nc4)cc3c21 | 1270 | 1650 | 
CC(=O)Nc1ccc(-c2ccc3ncc4ccc(=O)n(-c5cccc(C(F)(F)F)c5)c4c3c2)cn1 | 106 | 114 | 
Cc1nc(N)ncc1-c1ccc2ncc3ccc(=O)n(-c4cccc(C(F)(F)F)c4)c3c2c1 | 1150 | 2260 | 
O=c1ccc2cnc3ccc(-c4ccc5[nH]ccc5c4)cc3c2n1-c1cccc(C(F)(F)F)c1 | 191 | 325 | 
O=c1ccc2cnc3ccc(-c4ccc5[nH]ncc5c4)cc3c2n1-c1cccc(C(F)(F)F)c1 | 64 | 74 | 
Nc1ccc(-c2ccc3ncc4ccc(=O)n(-c5cccc(C(F)(F)F)c5)c4c3c2)cc1 | 99 | 147 | 
O=c1ccc2cnc3ccc(-c4cn[nH]c4)cc3c2n1-c1cccc(C(F)(F)F)c1 | 131 | 246 | 
O=c1ccc2cnc3ccc(-c4ccc5[nH]cnc5c4)cc3c2n1-c1cccc(C(F)(F)F)c1 | 37 | 96 | 
Cc1ccc(C(F)(F)F)cc1-n1c(=O)ccc2cnc3ccc(-c4ccc(N)nc4)cc3c21 | 44 | 65 | 
Cc1cccc(-n2c(=O)ccc3cnc4ccc(-c5ccc(N)nc5)cc4c32)c1 | 23 | 19 | 
Nc1ccc(-c2ccc3ncc4ccc(=O)n(-c5cccc(Cl)c5)c4c3c2)cn1 | 10 | 18 | 
N#Cc1cccc(-n2c(=O)ccc3cnc4ccc(-c5ccc(N)nc5)cc4c32)c1 | 12 | 23 | 
COc1cccc(-n2c(=O)ccc3cnc4ccc(-c5ccc(N)nc5)cc4c32)c1 | 95 | 137 | 
Nc1ccc(-c2ccc3ncc4ccc(=O)n(-c5cccc(S(N)(=O)=O)c5)c4c3c2)cn1 | 82 | 295 | 
Nc1ccc(-c2ccc3ncc4ccc(=O)n(-c5ccc(N6CCNCC6)c(C(F)(F)F)c5)c4c3c2)cn1 | 9 | 10 | 
O=c1ccc2cnc3ccc(-c4ccc(-c5nnn[nH]5)cc4)cc3c2n1-c1cccc(C(F)(F)F)c1 | > 20000 | 20900 | 
O=c1ccc2cnc3ccc(-c4ccc(Cl)cc4)cc3c2n1-c1cccc(C(F)(F)F)c1 | 253 | 673 | 
COc1ccc(-c2ccc3ncc4ccc(=O)n(-c5cccc(C(F)(F)F)c5)c4c3c2)cc1 | 2460 | 3240 | 
CC(=O)c1cccc(-c2ccc3ncc4ccc(=O)n(-c5cccc(C(F)(F)F)c5)c4c3c2)c1 | 352 | 1240 | 
O=c1ccc2cnc3ccc(-c4ccc5c(c4)OCC5)cc3c2n1-c1cccc(C(F)(F)F)c1 | 2240 | 3310 | 
Cn1ccc2cc(-c3ccc4ncc5ccc(=O)n(-c6cccc(C(F)(F)F)c6)c5c4c3)ccc21 | 2090 | 3260 | 
O=c1ccc2cnc3ccc(-c4ccc5c(c4)OCO5)cc3c2n1-c1cccc(C(F)(F)F)c1 | 802 | 3130 | 
O=c1ccc2cnc3ccc(-c4ccc(F)cc4)cc3c2n1-c1cccc(C(F)(F)F)c1 | 580 | 2660 | 
O=c1ccc2cnc3ccc(-c4ccc(O)cc4)cc3c2n1-c1cccc(C(F)(F)F)c1 | 129 | 165 | 
O=c1ccc2cnc3ccc(-c4ccc5sccc5c4)cc3c2n1-c1cccc(C(F)(F)F)c1 | 1640 | 3210 | 

SMILES | EC50 ([1]; Table 6) [nM] | EC50 [2, 3] [nM] | other results
CS(=O)(=O)c1ccc(-c2ccc3ncc4ccc(=O)n(-c5cccc(C(F)(F)F)c5)c4c3c2)cc1 | 266 | 491 | 
O=c1ccc2cnc3ccc(-c4ccc5nonc5c4)cc3c2n1-c1cccc(C(F)(F)F)c1 | 1720 | 4520 | 
O=c1ccc2cnc3ccc(-c4ccc(N5CCCCC5)nc4)cc3c2n1-c1cccc(C(F)(F)F)c1 | 4900 | 8090 | 
Cc1ccc(-c2ccc3ncc4ccc(=O)n(-c5cccc(C(F)(F)F)c5)c4c3c2)cn1 | 33 | 65 | 
NS(=O)(=O)c1ccc(-c2ccc3ncc4ccc(=O)n(-c5cccc(C(F)(F)F)c5)c4c3c2)cc1 | 384 | 303 | 
CN(C)C(=O)c1ccc(-c2ccc3ncc4ccc(=O)n(-c5cccc(C(F)(F)F)c5)c4c3c2)cc1 | 2080 | 1990 | 
O=c1ccc2cnc3ccc(-c4ccc(-c5ccccc5)cc4)cc3c2n1-c1cccc(C(F)(F)F)c1 | 15000 | 19300 | 
Cc1ccc(-c2ccc3ncc4ccc(=O)n(-c5cccc(C(F)(F)F)c5)c4c3c2)cc1 | 372 | 794 | 
O=c1ccc2cnc3ccc(-c4cncc(Cl)c4)cc3c2n1-c1cccc(C(F)(F)F)c1 | 3590 | 8800 | 
O=c1ccc2cnc3ccc(-c4cccc(N5CCCC5)c4)cc3c2n1-c1cccc(C(F)(F)F)c1 | 13300 | 16100 | 
O=C(c1ccc(-c2ccc3ncc4ccc(=O)n(-c5cccc(C(F)(F)F)c5)c4c3c2)cc1)N1CCNCC1 | 7870 | 5570 | 
O=C(c1ccc(-c2ccc3ncc4ccc(=O)n(-c5cccc(C(F)(F)F)c5)c4c3c2)cc1)N1CCOCC1 | 12000 | 22400 | 
O=c1ccc2cnc3ccc(-c4ccc(O)nc4)cc3c2n1-c1cccc(C(F)(F)F)c1 | 187 | 262 | 
NS(=O)(=O)c1cccc(-c2ccc3ncc4ccc(=O)n(-c5cccc(C(F)(F)F)c5)c4c3c2)c1 | 128 | 342 | 
O=C1NCCc2cc(-c3ccc4ncc5ccc(=O)n(-c6cccc(C(F)(F)F)c6)c5c4c3)ccc21 | 1130 | 3170 | 
O=C1CCc2cc(-c3ccc4ncc5ccc(=O)n(-c6cccc(C(F)(F)F)c6)c5c4c3)ccc2N1 | 1130 | 3170 | 
NCc1ccc2ncc3ccc(=O)n(-c4cccc(C(F)(F)F)c4)c3c2c1 | 163 | 281 | 
CN(C)Cc1ccc2ncc3ccc(=O)n(-c4cccc(C(F)(F)F)c4)c3c2c1 | 242 | 666 | 
CNC(=O)c1ccc(-c2ccc3ncc4ccc(=O)n(-c5cccc(C(F)(F)F)c5)c4c3c2)cc1 | 17 | 61 | 
O=C1Cc2cc(-c3ccc4ncc5ccc(=O)n(-c6cccc(C(F)(F)F)c6)c5c4c3)ccc2N1 | 19 | 51 | 
O=C1NCc2cc(-c3ccc4ncc5ccc(=O)n(-c6cccc(C(F)(F)F)c6)c5c4c3)ccc21 | 517 | 1790 | 
Cc1ccc(-c2ccc3ncc4[nH]c(=O)n(-c5cccc(C(F)(F)F)c5)c4c3c2)cn1 |  |  | EC50 [1, 4]: 59 nM; EC50 [2, 5]: 443 nM
Nc1ccc(-c2ccc3ncc4[nH]c(=O)n(-c5cccc(C(F)(F)F)c5)c4c3c2)cc1 |  |  | EC50 [1, 4]: 153 nM; EC50 [2, 5]: 630 nM
CC(=O)Nc1ccc(-c2ccc3ncc4[nH]c(=O)n(-c5cccc(C(F)(F)F)c5)c4c3c2)cn1 |  |  | EC50 [1, 4]: 35 nM; EC50 [2, 5]: 123 nM
Cc1cc2cnc3ccc(-c4ccc(N)nc4)cc3c2n(-c2cccc(C(F)(F)F)c2)c1=O |  |  | EC50 [1, 6]: 205 nM; EC50 [2, 7]: 46 nM
CCc1cc2cnc3ccc(-c4ccc(N)nc4)cc3c2n(-c2cccc(C(F)(F)F)c2)c1=O |  |  | EC50 [1, 6]: 260 nM; EC50 [2, 7]: 136 nM
